No end group written: not given here.
Legend:
[1] = tested on: CYP1A1, TNF-a, IL-6, IL-1b, COX-2 mRNA; experiment: RT-PCR of CYP1A1 and inflammatory molecules induced by TCDD; assay type: cell-based, human; details: HaCaT cells; 10 nM TCDD; 50 μM peptide; 6 hours or 24 hours
Protocol: (§1) HaCaT cells, human keratinocyte cells, were seeded on a 6-well plate at a density of 3×10^5 cells/well and cultured overnight. Subsequently, 10 nM of TCDD and 50 μM of the peptide consisting of an amino acid sequence of SEQ ID NO: 1, 2, or 3 were added to the culture medium. After 30 minutes of reaction, the cells were treated for 6 hours or 24 hours and collected to separate RNA therefrom. After quantifying RNA, cDNA was synthesized using a cDNA synthesis kit (Intron, Korea). Then, polymerase chain reaction (PCR) was performed using a PCR PreMix kit (Intron, Korea) and a primer for each of CYP1A1, TNF-a, IL-6, IL-1 b, and COX-2 shown in Table 4. Then, by running the resultant on a 5% agarose gel, the expression levels of mRNA of the growth factors were compared under the conditions of treating the respective samples, and the results are shown in FIGS. 5A to 5C.

[2] = tested on: CYP1A1, TNF-a, IL-6, IL-1b, COX-2 mRNA; experiment: RT-PCR of CYP1A1 and inflammatory molecules induced by particulate matter; assay type: cell-based, human; details: HaCaT cells; 10 nM particulate matter; 50 μM peptide; 6 hours or 24 hours
Protocol: as §1, with “particulate matter (PM)” for “TCDD”, “PCR” for “polymerase chain reaction (PCR)”, “IL-1b,” for “IL-1 b,”, “5.” for “4.”, “7A” for “5A”, “7C.” for “5C.”

Substance	effect on expressions of CYP1A1 and inflammatory factors induced by TCDD (in words) [1]	effect on expressions of CYP1A1 and inflammatory factors induced by particulate matter (in words) [2]
DVENTS [SEQ ID NO: 3, DVENTS]	inhibiting expressions of CYP1A1 and various inflammatory factors induced by TCDD	inhibiting expressions of CYP1 A1 and various inflammatory factors induced by particulate matter
ILGRWCG [SEQ ID NO: 2, ILGRWCG]	inhibiting expressions of CYP1A1 and various inflammatory factors induced by TCDD	inhibiting expressions of CYP1 A1 and various inflammatory factors induced by particulate matter
KWGGGRY [SEQ ID NO: 1, KWGGGRY]	inhibiting expressions of CYP1A1 and various inflammatory factors induced by TCDD	inhibiting expressions of CYP1 A1 and various inflammatory factors induced by particulate matter

Source: US11597748B2, “Peptide having cytoprotective effect against environmental pollutant and use thereof” (CAREGEN CO., LTD., priority 2017, dated 2023)
